Test results from patent publication EP1206258B1, “COMPOSITIONS CONTAINING ESTERS FOR TREATING PARASITIC INFESTATIONS OF ORGANISMS” (priority 1999, dated 2001).

Key:
Psoroptes cuniculi = test: in vitro immersion assay on the mite Psoroptes cuniculi; conditions: for mites had died: exposed for 24 hours, control 8%
Experimental: A series of in vitro assays were conducted to examine the effects of the compound trans-cinnamic acid ethyl ester on the mite Psoroptes cuniculi. This mite infests rabbits and is very similar to the mite Psoroptes ovis which infests sheep and causes sheep scab.
The mites were taken from the ears of infested rabbits and exposed for 24 hours to the active compound at concentrations of 10, 1 or 0.1 % (V/V). The concentrations were obtained by serial dilution of the compound in 0.05% sodium dodecyl sulphate (SDS).
This is illustrated in Figure 2 of the accompanying drawings.
The LC95 was 6.29% (95% confidence interval 4.98-8.88).
Line (1) represents adult males, line (2) adult females and (3) female nymphs.
Thus, trans-cinnamic acid ethyl ester gives greater than 50% levels of mortality within 24 hours, for all life cycle stages of P. cuniculi after short contact times (1 min) at concentrations of 2.2% (V/V). At one minute contact time, concentrations of greater than 6% (V/V) are required to bring about mortality of greater than 95%. Recent theoretical analysis using simulation modelling (Wall, unpublished) has shown that sustained mortality of greater than 50% per day is required to suppress a growing population of P. ovis.

Acarus siro = test: further residual filter paper bioassay on grain/flour mite Acarus siro (Table 2b); conditions: for % mortality: ethanol control 24.00
Experimental: A further study was carried out to investigate the effect of Ethyl cinnamate on the grain/flour mite Acarus siro using a residual filter paper bioassay. Mites from a colony grown at 25°C ± 85% RH were removed using a spatular and placed into a petri dish. 275 µ of the cinnamate was placed onto a filter paper in one well of a 6 well (17 ml) cell culture plate and likewise, 275 µ of DH2O was placed on another piece of 4 cm Whatman filter paper in a second well. Mixed instars (male + female) were added to each well. The actual number of instars was unknown in each case, since the test only sought to establish the presence of activity; measured in terms of cidal effect (knockdown). The duration of the test was 5 ± days. Both treatments were incubated at 25°C ± 85% RH and each well was checked 4 times daily. Small amounts of food mix of yeastea 20B and wheat germ in the ratio 3 : 1 were included on the filter paper in both treatments.
The treatment was later modified : 2, 10 cm Whatman filter papers were cut to ø of 3 cm and placed in the mite culture. After 10 minutes they were removed using forceps. The mites were then swept into each well respective of treatment. The cinnamate provided too glutenous (viscous) to be used undiluted. Therefore, it was dissolved using 10 fold dilutions in ethanol. Therefore 30 µ cinnamate : 270 µ ethanol to the extent of 10-4. The control was ethanol.
The above experiment was repeated.

[1] = tested on: all stages of blow fly and larval life cycle; test: activity against blow fly and larval stages
Rhizopus arrhizus = test: growth inhibition test on SAB agar, R. arrhizus; format: cell-based
Experimental: The antifungal activity of ethyl trans-cinnamate against a number of different fungi was investigated by means of in a simple growth inhibition test.
The following quantities of Ethyl trans-Cinnamate were added to Sabourand Dextrose agar (SAB); 50 ml L^-1, 4ml L^-1, 2ml L^-1, 1ml L^-1, 400 µl L^-1, 200 µl L^-1 and 40 µl L^-1. […] These were then autoclaved and poured into standard Petri dishes. […] Duplicate plates of each concentration, plus control plates containing only SAB Agar, where then separately inoculated with, four different species of fungi, these were Aspergillus nidulans, Penicillium digitatum, Rhizopus arrhizus and Fusarium culmorum. Inoculation was carried out using a single stab at the centre of each Petri dish. The plates were then incubated at 30°C for 6 days and daily measurements of mycobial growth where taken every 24 hours.

Aspergillus nidulans = test: growth inhibition test on SAB agar, A. nidulans; format: cell-based; conditions: 50ml L-^1 and higher doses; further experiments, data not shown

**Q.** What does the source list for `CCOC(=O)/C=C/c1ccccc1` [trans-cinnamic acid ethyl ester]?
**A.** LT50 (Psoroptes cuniculi; 0.1% (V/V), same as control (0.05% SDS only)): approximately 2.5 days; LD 25 Concentration (% V/V) (Psoroptes cuniculi; 24 hours after exposure): 0.53 % V/V; LD 50 Concentration (% V/V) (LC50) (Psoroptes cuniculi; 24 hours after exposure): 2.21 % V/V; LD 75 Concentration (% V/V) (Psoroptes cuniculi; 24 hours after exposure): 3.88 % V/V; LD 95 Concentration (% V/V) (LC95) (Psoroptes cuniculi; 24 hours after exposure): 6.29 % V/V; 50% mortality (LT50) (Psoroptes cuniculi; concentration 1%): 1 days; 50% mortality (LT50) (Psoroptes cuniculi; concentration 10%): 0.5 days; mites had died (Psoroptes cuniculi; 0.1 % (V/V) in 0.05% SDS): 20%; mites had died (Psoroptes cuniculi; 1 % (V/V) in 0.05% SDS): 74%; mites had died (Psoroptes cuniculi; 10 % (V/V) in 0.05% SDS): 100%; concentrations required to bring about mortality of greater than 95% (Psoroptes cuniculi; one minute contact time): greater than 6 % (V/V); levels of mortality (Psoroptes cuniculi; within 24 hours, all life cycle stages, contact time 1 min, 2.2% (V/V)): greater than 50%; % mortality (Acarus siro; Concentration 10-1 (dilution in ethanol)): 100.00%; % mortality (Acarus siro; Concentration 10-2 (dilution in ethanol)): 100.00%; % mortality (Acarus siro; Concentration 10-3 (dilution in ethanol)): 98.40%; % mortality (Acarus siro; Concentration 10-4 (dilution in ethanol)): 86.00%; time to 100% mortality (Acarus siro; undiluted dose, approximately): less than 15 minutes; effectiveness against all stages of blow fly and larval life cycle [1]: ineffective; Level of Radial Growth (mm) of R. arrhizus (Rhizopus arrhizus; 1ml L^-1, Day 1): 8.5 mm; Level of Radial Growth (mm) of R. arrhizus (Rhizopus arrhizus; 1ml L^-1, Day 2): 45.0 mm; Level of Radial Growth (mm) of R. arrhizus (Rhizopus arrhizus; 1ml L^-1, Day 3): 45.0 mm; Level of Radial Growth (mm) of R. arrhizus (Rhizopus arrhizus; 1ml L^-1, Day 4): 45.0 mm; Level of Radial Growth (mm) of R. arrhizus (Rhizopus arrhizus; 1ml L^-1, Day 5): 45.0 mm; Level of Radial Growth (mm) of R. arrhizus (Rhizopus arrhizus; 1ml L^-1, Day 6): 45.0 mm; Level of Radial Growth (mm) of R. arrhizus (Rhizopus arrhizus; 2ml L^-1, Day 1): 1. mm; Level of Radial Growth (mm) of R. arrhizus (Rhizopus arrhizus; 2ml L^-1, Day 2): 45.0 mm; Level of Radial Growth (mm) of R. arrhizus (Rhizopus arrhizus; 2ml L^-1, Day 3): 45.0 mm; Level of Radial Growth (mm) of R. arrhizus (Rhizopus arrhizus; 2ml L^-1, Day 4): 45.0 mm; Level of Radial Growth (mm) of R. arrhizus (Rhizopus arrhizus; 2ml L^-1, Day 5): 45.0 mm; Level of Radial Growth (mm) of R. arrhizus (Rhizopus arrhizus; 2ml L^-1, Day 6): 45.0 mm; Level of Radial Growth (mm) of R. arrhizus (Rhizopus arrhizus; 4ml L^-1, Day 1): 0 mm; Level of Radial Growth (mm) of R. arrhizus (Rhizopus arrhizus; 4ml L^-1, Day 2): 23.5 mm; Level of Radial Growth (mm) of R. arrhizus (Rhizopus arrhizus; 4ml L^-1, Day 3): 45.0 mm; Level of Radial Growth (mm) of R. arrhizus (Rhizopus arrhizus; 4ml L^-1, Day 4): 45.0 mm; Level of Radial Growth (mm) of R. arrhizus (Rhizopus arrhizus; 4ml L^-1, Day 5): 45.0 mm; Level of Radial Growth (mm) of R. arrhizus (Rhizopus arrhizus; 4ml L^-1, Day 6): 45.0 mm; Level of Radial Growth (mm) of R. arrhizus (Rhizopus arrhizus; 40µl L^-1, Day 1): 26.0 mm; Level of Radial Growth (mm) of R. arrhizus (Rhizopus arrhizus; 40µl L^-1, Day 2): 45.0 mm; Level of Radial Growth (mm) of R. arrhizus (Rhizopus arrhizus; 40µl L^-1, Day 3): 45.0 mm; Level of Radial Growth (mm) of R. arrhizus (Rhizopus arrhizus; 40µl L^-1, Day 4): 45.0 mm; Level of Radial Growth (mm) of R. arrhizus (Rhizopus arrhizus; 40µl L^-1, Day 5): 45.0 mm; Level of Radial Growth (mm) of R. arrhizus (Rhizopus arrhizus; 40µl L^-1, Day 6): 45.0 mm; duration of complete inhibition of growth (Rhizopus arrhizus; 50ml L-^1 and higher doses, further experiments, data not shown): at least 8 days; inhibition of growth (Rhizopus arrhizus; 50ml L-^1 level): complete inhibition of growth; Level of Radial Growth (mm) of R. arrhizus (Rhizopus arrhizus; 50 ml L^-1, Day 1): 0 mm; Level of Radial Growth (mm) of R. arrhizus (Rhizopus arrhizus; 50 ml L^-1, Day 2): 0 mm; Level of Radial Growth (mm) of R. arrhizus (Rhizopus arrhizus; 50 ml L^-1, Day 3): 0 mm; Level of Radial Growth (mm) of R. arrhizus (Rhizopus arrhizus; 50 ml L^-1, Day 4): 0 mm; Level of Radial Growth (mm) of R. arrhizus (Rhizopus arrhizus; 50 ml L^-1, Day 5): 0 mm; Level of Radial Growth (mm) of R. arrhizus (Rhizopus arrhizus; 50 ml L^-1, Day 6): 0 mm; Level of Radial Growth (mm) of R. arrhizus (Rhizopus arrhizus; 200µl L^-1, Day 1): 18.0 mm; Level of Radial Growth (mm) of R. arrhizus (Rhizopus arrhizus; 200µl L^-1, Day 2): 45.0 mm; Level of Radial Growth (mm) of R. arrhizus (Rhizopus arrhizus; 200µl L^-1, Day 3): 45.0 mm; Level of Radial Growth (mm) of R. arrhizus (Rhizopus arrhizus; 200µl L^-1, Day 4): 45.0 mm; Level of Radial Growth (mm) of R. arrhizus (Rhizopus arrhizus; 200µl L^-1, Day 5): 45.0 mm; Level of Radial Growth (mm) of R. arrhizus (Rhizopus arrhizus; 200µl L^-1, Day 6): 45.0 mm; Level of Radial Growth (mm) of R. arrhizus (Rhizopus arrhizus; 400µl L^-1, Day 1): 14.5 mm; Level of Radial Growth (mm) of R. arrhizus (Rhizopus arrhizus; 400µl L^-1, Day 2): 45.0 mm; Level of Radial Growth (mm) of R. arrhizus (Rhizopus arrhizus; 400µl L^-1, Day 3): 45.0 mm; Level of Radial Growth (mm) of R. arrhizus (Rhizopus arrhizus; 400µl L^-1, Day 4): 45.0 mm; Level of Radial Growth (mm) of R. arrhizus (Rhizopus arrhizus; 400µl L^-1, Day 5): 45.0 mm; Level of Radial Growth (mm) of R. arrhizus (Rhizopus arrhizus; 400µl L^-1, Day 6): 45.0 mm; duration of complete inhibition of growth (Aspergillus nidulans): at least 8 days
